Experimental data published in US7479489B2, “Heterocyclic antiviral compounds” (Roche Palo Alto LLC, priority 2004, dated 2009).

Experiments:
[1] = molecular target: T1, HCV NS5B570n-BK (Hepatitis C virus genotype 1b, UniProt P26663); assay: HCV NS5B RNA polymerase activity; assay type: biochemical, HCV BK strain
T1 construct: His tag (N); made in house; host or cells: E. coli strain M15
Description: The enzymatic activity of HCV NS5B570n-BK is measured as incorporation of radiolabeled nucleotide monophosphates into acid insoluble RNA products. Unincorporated radiolabel substrate is removed by filtration and scintillant is added to the washed and dried filter plate containing radiolabeled RNA product. The light emitted by the scintillant is proportional to the amount of RNA product generated by NS5B570n-BK at the endpoint of the reaction.
The N-terminally histidine tagged HCV polymerase, derived from HCV BK strain, genotype 1b (NS5B570n-BK) contains a 21 amino acid deletion at the C-terminus relative to the full-length HCV polymerase and is purified from E. coli strain M15. The construct containing the coding sequence of HCV BK strain amino acid residues 2421-2999 (GenBank accession number M58335) downstream of a […] promoter expression cassette was inserted into plasmid constructs. The plasmid constructs are transformed in E. coli and colonies are inoculated and grown overnight in 10 L of Terrific broth (Tartoff and Hobbs) supplemented with 100 μg/mL ampicillin at 37° C. Protein expression is induced by addition of 1 mM isopropyl-β-D-thiogalactopyranoside (IPTG), when optical densities reaches between 1.5 and 3.5 OD600 and the culture is then incubated for 16- to 18 h at 22° C. NS5B570n-BK is purified to homogeneity using a three step protocol including subsequent column chromatography on Ni-NTA, SP-Sepharose HP and Superdex 75 resins.
Each 50 μl enzymatic reaction contains 8:4 μg/mL polyA:oligo U16 (template:primer), 20 nM or 200 nM NS5B570n-BK enzyme, 1 μCi of tritiated UTP (Perkin Elmer catalog no. TRK412; specific activity: 30 to 60 Ci/mmol; stock solution concentration from 7.5×10^−5 M to 20.6×10^−6 M), 40 mM Tris-HCl pH 8.0, 2 to 40 mM NaCl, 4 mM DTT (dithiothreitol), 4 mM MgCl2, and 5 μl of compound serial diluted in DMSO. Reaction mixtures are assembled in MADVNOB 96-well filter plates (Millipore Co.) and incubated for 2 h at 30° C. Reactions are stopped by addition of 10% (v/v) trichloroacetic acid and incubated for 40 min at 4° C. Reactions are filtered, washed with 8 reaction volumes of 10% (v/v) trichloroacetic acetic acid, 4 reaction volumes of 70% (v/v) ethanol, air dried, and 25 μl of scintillant (Microscint 20, Perkin-Elmer) is added to each reaction well.
The amount of light emitted from the scintillant is converted to counts per minute (CPM) on a Topcount® plate reader (Perkin-Elmer, Energy Range: Low, Efficiency Mode: Normal, Count Time: 1 min, Background Subtract: none, Cross talk reduction: Off).
Data is analyzed with GraphPad® Prism® and/or Microsoft® Excel®. The reaction in the absence of enzyme is used to determine the background signal, which is subtracted from the enzymatic reactions. Positive control reactions are performed in the absence of compound, from which the background corrected activity is set as 100% polymerase activity. All data is expressed as a percentage of the positive control. The compound concentration at which the enzyme-catalyzed rate of RNA synthesis is reduced by 50% (IC50) is calculated by fitting equation (i) to
[formula] the data, where “Y” corresponds to the relative enzyme activity (in %), “% Min” is the residual relative enzymatic activity at saturating compound concentration, “% Max” is the maximal relative enzymatic activity compared to positive control, X corresponds to the compound concentration, and “S” is the Hill coefficient (or slope).
Alternatively the assay can be run as described above with the following modifications. The polyA:oligo U16 homopolymeric RNA template:primer is replaced by the heteropolymeric cIRES RNA template at concentrations of 20 nM or 200 nM. The cIRES RNA template is derived from the complementary sequence of the Internal Ribosome Entry site of the HCV genome (nucleotide 1 through 378 at the 5′-end of the negative strand of the HCV genome (EMBL database accession number AJ238799). The reaction mixture is supplemented with 1 μM ATP, CTP, and GTP […]

[2] = system: Renilla luciferase HCV replicon cells (2209-23); assay: Renilla luciferase assay (HCV replicon); assay type: cell-based; conditions: 72 h; replicon level, three days incubation

T1 sequence (P26663 2421-2989): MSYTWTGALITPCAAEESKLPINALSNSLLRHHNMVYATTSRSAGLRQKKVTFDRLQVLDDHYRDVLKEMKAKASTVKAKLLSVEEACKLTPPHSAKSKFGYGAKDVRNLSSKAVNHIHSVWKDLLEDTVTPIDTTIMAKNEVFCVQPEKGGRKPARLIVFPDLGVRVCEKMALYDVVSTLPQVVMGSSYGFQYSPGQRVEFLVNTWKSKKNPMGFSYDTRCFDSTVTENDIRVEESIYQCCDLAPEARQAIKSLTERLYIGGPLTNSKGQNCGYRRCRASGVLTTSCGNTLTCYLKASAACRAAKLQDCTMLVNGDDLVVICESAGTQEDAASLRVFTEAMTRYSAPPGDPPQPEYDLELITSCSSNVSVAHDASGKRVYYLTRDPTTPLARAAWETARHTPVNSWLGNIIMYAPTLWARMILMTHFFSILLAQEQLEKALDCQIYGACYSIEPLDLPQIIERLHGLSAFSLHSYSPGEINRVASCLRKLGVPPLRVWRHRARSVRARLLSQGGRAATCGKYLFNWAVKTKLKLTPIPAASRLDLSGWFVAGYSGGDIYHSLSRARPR

Row | SMILES | IC50 ([1]; 20 nM cIRES) | IC50 [2] | IC50 ([1]; 200 nM polyA: oligo U16) | melting point | IC50 ([1]; 200 nM cIRES)
1 | CC(C)(C)[C@H]1C(O)=C(C2=CS(=O)(=O)c3cc(NS(C)(=O)=O)ccc3N2)C(=O)N1Cc1ccc(F)c(Cl)c1 [II-11, N-{3-[(S)-5-tert-Butyl-1-(3-chloro-4-fluoro-benzyl)-4-hydroxy-2-oxo-2,5-dihydro-1H-pyrrol-3-yl]-1,1-dioxo-1,4-dihydro-1λ^6-benzo[1,4]thiazin-7-yl}-methanesulfonamide] | 4.6 nM | 9 nM |  |  | 
2 | NS(=O)(=O)Nc1ccc2c(c1)S(=O)(=O)C=C(c1c(O)c3cc(F)ccc3n(CCC3CC3)c1=O)N2 [Compound I-40, 1-{3-[1-(2-cyclopropyl-ethyl)-6-fluoro-4-hydroxy-2-oxo-1,2-dihydro-quinolin-3-yl]-1,1-dioxo-1,4-dihydro-1λ^6-benzo[1,4]thiazin-7-yl}-sulfamide] |  | 9 nM | 350 nM | 183 to 186 °C | 
3 | NC(=O)COc1ccc2c(c1)S(=O)(=O)C=C(c1c(O)c3cc(F)ccc3n(Cc3ccc(F)cc3)c1=O)N2 [Compound I-20, 2-{3-[6-Fluoro-1-(4-fluoro-benzyl)-4-hydroxy-2-oxo-1,2-dihydro-quinolin-3-yl]-1,1-dioxo-1,4-dihydro-1λ^6-benzo[1,4]thiazin-7-yloxy}-acetamide] |  | 1050 nM | 150 nM |  | 
4 | CS(=O)(=O)Nc1ccc2c(c1)S(=O)(=O)C=C(c1c(O)c3cc(F)ccc3n(Cc3ccc(F)cc3)c1=O)N2 [Compound I-24, N-{3-[6-Fluoro-1-(4-fluoro-benzyl)-4-hydroxy-2-oxo-1,2-dihydro-quinolin-3-yl]-1,1-dioxo-1,4-dihydro-1λ^6-benzo[1,4]thiazin-7-yl}-methanesulfonamide] | 5.5 nM | 13 nM | 151 nM |  | 67 nM
5 | CCS(=O)(=O)Nc1ccc2c(c1)S(=O)(=O)C=C(c1c(O)c3cc(F)ccc3n(CCC3CC3)c1=O)N2 [Compound I-32, ethanesulfonic acid {3-[1-(2-cyclopropyl-ethyl)-6-fluoro-4-hydroxy-2-oxo-1,2-dihydro-quinolin-3-yl]-1,1-dioxo-1,4-dihydro-1λ6-benzo[1,4]thiazin-7-yl}-amide] | 7.3 nM | 5 nM | 220 nM | 140 to 142 °C | 
6 | CS(=O)(=O)Nc1ccc2c(c1)S(=O)(=O)C=C(c1c(O)c3cc(F)c(F)cc3n(Cc3ccc(F)cc3)c1=O)N2 [Compound I-69, N-{3-[6,7-Difluoro-1-(4-fluoro-benzyl)-4-hydroxy-2-oxo-1,2-dihydro-quinolin-3-yl]-1,1-dioxo-1,4-dihydro-1λ^6-benzo[1,4]thiazin-7-yl}-methanesulfonamide] | 14.4 nM | 15 nM |  |  | 
